Data published in patent US20040162263A1, “Pharmaceutical formulations targeting specific regions of the gastrointesinal tract” (priority 2002, published 2004).

Experiment: Pharmacokinetics of 9-nitro-camptothecin (9NC) in IVAP beagle dog model
Assay type: in vivo, beagle dogs
Procedure: Blood samples were taken systemic and from the portal vein through a sampling/delivery vascular port previously implanted, then plasma was separated by centrifugation and kept frozen at −80° C. until analysis.
The samples were analyzed in a Perkin Elmer liquid chromatography-tandem mass spectrometer system with a PE LC-200 Micro pump, a PE200 Autosampler and a PE Sciex API 365 mass spectrometry unit.
Adult male beagle dogs (between the ages of 1 and 5 years and weighed between 9 and 16 kg) were obtained from Summit Ridge Farms, Susquehanna, Pa. The IVAP dogs were prepared by using a protocol similar to the one used for pentostatin experiments described above.
On the morning of the test, each animal is weighed and placed in the sling. An IV catheter is installed in the brachial vein for systemic blood sampling with a multiuse vacutainer needle adapter. This is flushed with heparinized saline (50 units/ml) to maintain potency between sampling. When necessary, a 20 g or 22 g right-angled Huber infusion set would be placed in the PV port and attached to a three-way stopcock for PV blood sampling.
The preparation of the dose depends on the route of study. In case of IV and PV administration, the drug was dissolved in dimethylacetamide (DMA) at 5 mg/ml and 0.5 ml of the DMA concentrate filtered through a […] filter into 4.5 ml of diluent (51% PEG-400 49% 0.001 M H3PO4) prior to administration to the brachial or portal vein. In the case of all other infusions, as well as oral administration, the drug was dissolved in vegetable oil to a concentration of 1 mg/ml and drawn up into dosing syringes. Animals were dosed IV at 0.1 and 0.2 mg/kg and 0.2 mg/kg for all the other routes of administration tested.
In intravascular studies, the dose is administered via a second catheter and the entire volume is delivered within 45 seconds.
In portal vein studies, the dose is also administered via an additional catheter over a 30 min time period.
In the case of oral dosages, the dose is delivered to the back of the mouth with an appropriate size syringe and is followed with 5 ml of tap water to assist swallowing and clearance of the dose from the mouth. Capsules were administered similarly by placing them at the back of the mouth and giving around 5 ml of water to facilitate swallowing.
For all other tests, the dosage is infused into the appropriate intestinal port and flushed with 2-3 ml of sterile saline. The dead space volume of the ports and tubing vary slightly between individuals, but are generally less than 0.5 ml total. […]
Systemic blood samples allow the calculation of AUC0-inf after oral capsule administration only and portal vein AUC for all the routes of administration.

[1] = 9-NC 0.2 mg/kg COLON port, 0.17 hr
[2] = 9-NC 0.2 mg/kg ileum port, 0.17 hr
[3] = 9-NC 0.2 mg/kg jejunal port, 0.17 hr
[4] = portal vein samples, 9-NC via COLON port
[5] = portal vein samples, 9-NC via ILEUM port
[6] = portal vein samples, 9-NC via JEJUNUM port
[7] = systemic samples, 9-NC via COLON port
[8] = systemic samples, 9-NC via ILEUM port
[9] = systemic samples, 9-NC via JEJUNUM port

Compound: CC[C@@]1(O)C(=O)OCc2c1cc1n(c2=O)Cc2cc3c([N+](=O)[O-])cccc3nc2-1 [9-NC, 9-nitro-20(S)-camptothecin]
- Mean plasma concentration, Portal Vein [1]: 0.53 ± 0.05 ng/mL
- Mean plasma concentration, Systemic [1]: 0.117 ng/mL
- Mean plasma concentration, Portal Vein [2]: 0.44 ± 0.10 ng/mL
- Mean plasma concentration, Systemic [2]: 0.11 ± 0.01 ng/mL
- Mean plasma concentration, Portal Vein [3]: 0.54 ± 0.22 ng/mL
- Mean plasma concentration, Systemic [3]: BQL
- Mean plasma concentration, Portal Vein (COLON port, 0.5 hr): 0.37 ± 0.12 ng/mL
- Mean plasma concentration, Systemic (COLON port, 0.5 hr): 0.1 ng/mL
- Mean plasma concentration, Portal Vein (COLON port, 1 hr): 0.37 ± 0.15 ng/mL
- Mean plasma concentration, Systemic (COLON port, 1 hr): 0.114 ng/mL
- Mean plasma concentration, Systemic (COLON port, 1.5 hr): BQL
- Mean plasma concentration, Portal Vein (COLON port, 2 hr): 0.16 ± 0.05 ng/mL
- Mean plasma concentration, Systemic (COLON port, 2 hr): 0.134 ng/mL
- Mean plasma concentration, Systemic (COLON port, 4 hr): BQL
- Mean plasma concentration, Systemic (COLON port, 6 hr): BQL
- Mean plasma concentration, Systemic (COLON port, 8 hr): BQL
- Mean plasma concentration, Systemic (COLON port, 12 hr): BQL
- Mean plasma concentration, Systemic (COLON port, 24 hr): 0.11 ng/mL
- clearance (IV 0.1 mg/kg): 29.3 ± 3.17 mL/min/kg
- half-life (IV 0.1 mg/kg, systemic): 0.88 ± 0.45 h
- clearance (IV 0.2 mg/kg): 28.8 ± 13 mL/min/kg
- Bioavailability (high iv dose) (Intracolon): 0.1 ± 0.1%
- Bioavailability (low iv dose) (Intracolon): 0.1 ± 0.1%
- Bioavailability, Average (Intracolon): 0.1%
- Mean AUC0-inf of 9-NC, Portal Vein AUC (Intracolon 0.2 mg/kg): 1.48 ± 0.29 ng·h/mL
- Mean AUC0-inf of 9-NC, Systemic AUC (Intracolon 0.2 mg/kg): 0.07 ± 0.06 ng·h/mL
- Bioavailability (high iv dose) (Intraileum): 1.6 ± 1.1%
- Bioavailability (low iv dose) (Intraileum): 1.6 ± 1.2%
- Bioavailability, Average (Intraileum): 1.6%
- Mean AUC0-inf of 9-NC, Portal Vein AUC (Intraileum 0.2 mg/kg): 1.76 ± 0.95 ng·h/mL
- Mean AUC0-inf of 9-NC, Systemic AUC (Intraileum 0.2 mg/kg): 1.65 ± 1.15 ng·h/mL
- Bioavailability (high iv dose) (Intrajejunal): 3.0 ± 3.2%
- Bioavailability (low iv dose) (Intrajejunal): 3.0 ± 3.2%
- Bioavailability, Average (Intrajejunal): 3.2%
- Mean AUC0-inf of 9-NC, Portal Vein AUC (Intrajejunal 0.2 mg/kg): 4.46 ± 4.00 ng·h/mL
- Mean AUC0-inf of 9-NC, Systemic AUC (Intrajejunal 0.2 mg/kg): 1.03 ± 1.34 ng·h/mL
- Mean AUC0-inf of 9-NC, Portal Vein AUC (Intravenous - High (0.2 mg/kg)): 93.61 ± 17.02 ng·h/mL
- Mean AUC0-inf of 9-NC, Systemic AUC (Intravenous - High (0.2 mg/kg)): 118.33 ± 21.82 ng·h/mL
- Mean AUC0-inf of 9-NC, Portal Vein AUC (Intravenous - Low (0.1 mg/kg)): 45.05 ± 4.08 ng·h/mL
- Mean AUC0-inf of 9-NC, Systemic AUC (Intravenous - Low (0.1 mg/kg)): 57.25 ± 5.84 ng·h/mL
- Bioavailability (high iv dose) (Oral - capsule): 4.1 ± 3.8%
- Bioavailability (low iv dose) (Oral - capsule): 4.2 ± 4.0%
- Bioavailability, Average (Oral - capsule): 4.1%
- Mean AUC0-inf of 9-NC, Portal Vein AUC (Oral - capsule 0.2 mg/kg): 11.48 ± 1.50 ng·h/mL
- Mean AUC0-inf of 9-NC, Systemic AUC (Oral - capsule 0.2 mg/kg): 4.75 ± 4.61 ng·h/mL
- Bioavailability (high iv dose) (Oral - suspension): 0.4 ± 0.6%
- Bioavailability (low iv dose) (Oral - suspension): 0.4 ± 0.6%
- Bioavailability, Average (Oral - suspension): 0.4%
- Mean AUC0-inf of 9-NC, Portal Vein AUC (Oral - suspension 0.2 mg/kg): 11.97 ± 9.88 ng·h/mL
- Mean AUC0-inf of 9-NC, Systemic AUC (Oral - suspension 0.2 mg/kg): 0.48 ± 0.53 ng·h/mL
- Bioavailability (high iv dose) (Portal vein): 5.2 ± 0.8%
- Bioavailability (low iv dose) (Portal vein): 5.4 ± 1.4%
- Mean AUC0-inf of 9-NC, Systemic AUC (Portal vein infusion 0.2 mg/kg): 6.24 ± 2.11 ng·h/mL
- Mean plasma concentration, Portal Vein (ileum port, 0.5 hr): 0.56 ± 0.32 ng/mL
- Mean plasma concentration, Systemic (ileum port, 0.5 hr): 0.12 ng/mL
- Mean plasma concentration, Portal Vein (ileum port, 1 hr): 0.22 ± 0.03 ng/mL
- Mean plasma concentration, Systemic (ileum port, 1 hr): BQL
- Mean plasma concentration, Portal Vein (ileum port, 1.5 hr): 0.34 ± 0.29 ng/mL
- Mean plasma concentration, Systemic (ileum port, 1.5 hr): 0.13 ± 0.04 ng/mL
- Mean plasma concentration, Portal Vein (ileum port, 2 hr): 0.13 ± 0.02 ng/mL
- Mean plasma concentration, Systemic (ileum port, 2 hr): 0.10 ± 0.00 ng/mL
- Mean plasma concentration, Portal Vein (ileum port, 3 hr): 0.12 ± 0.00 ng/mL
- Mean plasma concentration, Systemic (ileum port, 3 hr): 0.17 ng/mL
- Mean plasma concentration, Portal Vein (ileum port, 4 hr): BQL
- Mean plasma concentration, Systemic (ileum port, 4 hr): 0.13 ng/mL
- Mean plasma concentration, Portal Vein (ileum port, 6 hr): 0.10 ng/mL
- Mean plasma concentration, Systemic (ileum port, 6 hr): BQL
- Mean plasma concentration, Systemic (ileum port, 8 hr): 0.14 ng/mL
- Mean plasma concentration, Systemic (ileum port, 12 hr): 0.14 ± 0.02 ng/mL
- Mean plasma concentration, Systemic (ileum port, 24 hr): 0.13 ng/mL
- Mean plasma concentration, Portal Vein (jejunal port, 0.5 hr): 0.41 ± 0.00 ng/mL
- Mean plasma concentration, Systemic (jejunal port, 0.5 hr): 0.14 ng/mL
- Mean plasma concentration, Portal Vein (jejunal port, 1 hr): 0.56 ± 0.47 ng/mL
- Mean plasma concentration, Systemic (jejunal port, 1 hr): 0.15 ng/mL
- Mean plasma concentration, Portal Vein (jejunal port, 2 hr): 0.37 ± 0.10 ng/mL
- Mean plasma concentration, Systemic (jejunal port, 2 hr): 0.14 ng/mL
- Mean plasma concentration, Portal Vein (jejunal port, 3 hr): 0.41 ng/mL
- Mean plasma concentration, Systemic (jejunal port, 3 hr): 0.15 ng/mL
- Mean plasma concentration, Portal Vein (jejunal port, 4 hr): BLOQ
- Mean plasma concentration, Systemic (jejunal port, 4 hr): BQL
- Mean plasma concentration, Portal Vein (jejunal port, 6 hr): BLOQ
- Mean plasma concentration, Systemic (jejunal port, 6 hr): BQL
- Mean plasma concentration, Portal Vein (jejunal port, 8 hr): BLOQ
- Mean plasma concentration, Systemic (jejunal port, 8 hr): 1.36 ± 1.73 ng/mL
- Mean plasma concentration, Systemic (jejunal port, 10 hr): BQL
- Mean plasma concentration, Portal Vein (jejunal port, 12 hr): 0.15 ng/mL
- Mean plasma concentration, Systemic (jejunal port, 12 hr): BQL
- Mean plasma concentration, Portal Vein (jejunal port, 24 hr): BLOQ
- Mean plasma concentration, Systemic (jejunal port, 24 hr): BQL
- AUC0-INF (portal vein samples, 0.2 mg/kg 9-NC via COLON port): 1.48 ± 0.29 ng·h/mL
- AUC0-INF (portal vein samples, 0.2 mg/kg 9-NC via ILEUM port): 1.76 ± 0.95 ng·h/mL
- AUC0-INF (portal vein samples, 0.2 mg/kg 9-NC via JEJUNUM port): 4.46 ± 4.00 ng·h/mL
- AUCLast [4]: 0.73 ± 0.63 ng·h/mL
- CMAX [4]: 0.79 ± 0.61 ng/mL
- MRT [4]: 2.21 ± 1.46 h
- TMAX [4]: 1.67 ± 0.29 h
- AUCLast [5]: 0.87 ± 0.11 ng·h/mL
- CMAX [5]: 0.65 ± 0.20 ng/mL
- MRT [5]: 8.65 ± 1.62 h
- T1/2 [5]: 6.10 ± 7.50 h
- TMAX [5]: 0.34 ± 0.23 h
- AUCLast [6]: 0.85 ± 0.55 ng·h/mL
- CMAX [6]: 0.66 ± 0.24 ng/mL
- MRT [6]: 15.12 ± 1.62 h
- T1/2 [6]: 7.59 ± 3.14 h
- TMAX [6]: 0.56 ± 0.42 h
- AUC0-INF (systemic samples, 0.2 mg/kg 9-NC via JEJUNUM port): 6.66 ng·h/mL
- AUCLast [7]: 0.07 ± 0.06 ng·h/mL
- CMAX [7]: 0.08 ± 0.07 ng/mL
- F [7]: 0.1 ± 0.1%
- TMAX [7]: 0.72 ± 1.11 h
- AUCLast [8]: 1.65 ± 1.15 ng·h/mL
- CMAX [8]: 0.17 ± 0.01 ng/mL
- Cl/F [8]: 85.5 mL/min/kg
- F [8]: 1.6 ± 1.2%
- TMAX [8]: 2.25 ± 1.06 h
- Vz [8]: 1441 L/kg
- AUCLast [9]: 1.03 ± 1.34 ng·h/mL
- CMAX [9]: 0.96 ± 1.40 ng/mL
- Cl/F [9]: 500 mL/min/kg
- F [9]: 3.0 ± 3.2%
- MRT [9]: 54.11 h
- TMAX [9]: 4.00 ± 3.61 h
- Vz [9]: 1469 L/kg
